Values of other authors, collected in patent publication US20250114375A1, “PHARMACEUTICAL COMPOSITION OF LIFITEGRAST AND LOTEPREDNOL ETABONATE” (ORBICULAR PHARMACEUTICAL TECHNOLOGIES PRIVATE LIMITED, priority 2022, published 2025).

Legend:
[1] = system: conjunctival goblet cells; conditions: in vivo
[2] = target: T1, glucocorticoid receptors (Homo sapiens, UniProt P04150); conditions: inactive carboxylic acid metabolite of loteprednol etabonate
T1 sequence (P04150 1-777): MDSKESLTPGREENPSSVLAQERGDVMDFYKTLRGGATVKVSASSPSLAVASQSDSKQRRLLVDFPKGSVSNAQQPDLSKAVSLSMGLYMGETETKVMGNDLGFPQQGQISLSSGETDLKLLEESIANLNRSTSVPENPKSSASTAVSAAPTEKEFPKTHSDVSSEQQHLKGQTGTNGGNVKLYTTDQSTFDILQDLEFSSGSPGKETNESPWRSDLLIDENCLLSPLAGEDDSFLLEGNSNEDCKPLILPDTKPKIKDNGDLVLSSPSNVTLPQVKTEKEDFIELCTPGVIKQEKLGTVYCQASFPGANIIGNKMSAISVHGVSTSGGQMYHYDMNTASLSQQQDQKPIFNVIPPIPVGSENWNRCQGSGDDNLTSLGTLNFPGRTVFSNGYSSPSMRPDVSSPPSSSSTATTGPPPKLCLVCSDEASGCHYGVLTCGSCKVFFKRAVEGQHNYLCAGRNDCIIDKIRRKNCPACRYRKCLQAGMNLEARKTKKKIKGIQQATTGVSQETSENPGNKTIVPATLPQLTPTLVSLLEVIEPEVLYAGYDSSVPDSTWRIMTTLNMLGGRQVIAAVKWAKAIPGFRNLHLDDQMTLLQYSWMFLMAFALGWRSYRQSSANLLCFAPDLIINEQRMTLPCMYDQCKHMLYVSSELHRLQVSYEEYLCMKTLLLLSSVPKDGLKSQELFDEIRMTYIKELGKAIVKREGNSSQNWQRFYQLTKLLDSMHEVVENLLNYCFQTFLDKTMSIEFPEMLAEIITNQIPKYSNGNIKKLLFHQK

SMILES | increase of goblet cell area [1] [%] | increase of the number of conjunctival goblet cells [1] [%] | binding to glucocorticoid receptors [2]
CS(=O)(=O)c1cccc(C[C@H](NC(=O)c2c(Cl)cc3c(c2Cl)CCN(C(=O)c2ccc4ccoc4c2)C3)C(=O)O)c1 [Lifitegrast] | 22 | 39 | –
CCOC(=O)OC1(C(=O)O)CCC2C3CCC4=CC(=O)C=CC4(C)C3C(O)CC21C (stereo not drawn) [PJ-91] | – | – | does not bind
